{"source": "PubChem BioAssay AID256", "about": "(DTP/NCI, 2004)", "tested_on": "CD2F1 mice, L1210 leukemia ip, survival T/C", "assay": "NCI In Vivo Anticancer Drug Screen. Data for tumor model L1210 Leukemia (intraperitoneal) in CD2F1 (CDF1) mice", "settings": "higher = longer survival", "in_short": "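Tumor-bearing mice (transplanted tumor) were split into treated and vehicle control groups, and the measured endpoint of each treated group was divided by that of its vehicle controls.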", "key": {"[1]": {"settings": "endpoint: mean survival time, dose: 100.0 mg/kg/injection, schedule: Q04DX002 (ip), vehicle: saline with Tween-80"}, "[2]": {"settings": "endpoint: mean survival time, dose: 200.0 mg/kg/injection, schedule: Q04DX002 (ip), vehicle: saline with Tween-80"}, "[3]": {"settings": "endpoint: mean survival time, dose: 400.0 mg/kg/injection, schedule: Q04DX002 (ip), vehicle: saline with Tween-80"}, "[4]": {"settings": "endpoint: mean survival time, dose: 3.12 mg/kg/injection, schedule: Q01DX009 (ip), vehicle: saline with Tween-80"}, "[5]": {"settings": "endpoint: mean survival time, dose: 6.25 mg/kg/injection, schedule: Q01DX009 (ip), vehicle: saline with Tween-80"}, "[6]": {"settings": "endpoint: mean survival time, dose: 12.5 mg/kg/injection, schedule: Q01DX009 (ip), vehicle: saline with Tween-80"}, "[7]": {"settings": "endpoint: mean survival time, dose: 25.0 mg/kg/injection, schedule: Q01DX009 (ip), vehicle: saline with Tween-80"}, "[8]": {"settings": "endpoint: mean survival time, dose: 50.0 mg/kg/injection, schedule: Q01DX009 (ip), vehicle: saline with Tween-80"}, "[9]": {"settings": "endpoint: mean survival time, dose: 100.0 mg/kg/injection, schedule: Q01DX009 (ip), vehicle: saline with Tween-80"}, "[10]": {"settings": "endpoint: mean survival time, dose: 100.0 mg/kg/injection, schedule: Q04DX003 (ip), vehicle: saline with Tween-80"}, "[11]": {"settings": "endpoint: mean survival time, dose: 200.0 mg/kg/injection, schedule: Q04DX003 (ip), vehicle: saline with Tween-80"}}, "note": "Where “and” joins values, the source holds several entries; their conditions need not be identical. Equal entries are not always repeated. Inconclusive results and toxic doses are left out.", "data": [{"smiles": "N#C[S-].N#C[S-].[NH-]CC[NH-].[Pt+4]", "values": [{"measurement": "T/C", "setting": "endpoint: mean survival time, dose: 10.0 mg/kg/injection, schedule: Q04DX003 (ip), vehicle: saline with Tween-80", "value": "97 % of control"}, {"measurement": "T/C", "setting": "endpoint: mean survival time, dose: 20.0 mg/kg/injection, schedule: Q04DX003 (ip), vehicle: saline with Tween-80", "value": "98 % of control"}, {"measurement": "T/C", "setting": "endpoint: mean survival time, dose: 40.0 mg/kg/injection, schedule: Q04DX003 (ip), vehicle: saline with Tween-80", "value": "106 % of control"}]}, {"smiles": "COc1c2occc2c(OC)c2c(=O)cc(/C=C/c3ccccn3)oc12", "values": [{"measurement": "T/C", "setting": "endpoint: mean survival time, dose: 100.0 mg/kg/injection, schedule: Q01DX001 (ip), vehicle: saline", "value": "98 % of control"}, {"measurement": "T/C", "setting": "endpoint: mean survival time, dose: 200.0 mg/kg/injection, schedule: Q01DX001 (ip), vehicle: saline", "value": "101 % of control"}, {"measurement": "T/C", "setting": "endpoint: mean survival time, dose: 400.0 mg/kg/injection, schedule: Q01DX001 (ip), vehicle: saline", "value": "98 % of control"}]}, {"smiles": "O=C(CC(=O)c1ccc(Cl)cc1)Cc1ccc2ccccc2n1", "values": [{"measurement": "T/C", "setting": "[1]", "value": "97 % of control"}, {"measurement": "T/C", "setting": "[2]", "value": "97 % of control"}, {"measurement": "T/C", "setting": "[3]", "value": "97 % of control"}]}, {"smiles": "[NH-]C(CCC(N)=O)C(=O)O.[NH-]C(CCC(N)=O)C(=O)O.[Zn+2]", "note": "(stereo not given)", "values": [{"measurement": "T/C", "setting": "endpoint: median survival time, dose: 6.25 mg/kg/injection, schedule: Q01DX009 (ip), vehicle: saline with Tween-80", "value": "102 % of control"}, {"measurement": "T/C", "setting": "endpoint: median survival time, dose: 12.5 mg/kg/injection, schedule: Q01DX009 (ip), vehicle: saline with Tween-80", "value": "101 % of control"}, {"measurement": "T/C", "setting": "endpoint: median survival time, dose: 25.0 mg/kg/injection, schedule: Q01DX009 (ip), vehicle: saline with Tween-80", "value": "96 % of control"}, {"measurement": "T/C", "setting": "endpoint: median survival time, dose: 50.0 mg/kg/injection, schedule: Q01DX009 (ip), vehicle: saline with Tween-80", "value": "101 % of control"}]}, {"smiles": "Nc1ncnc2c1ncn2[C@@H](C=O)O[C@@H](C=O)CO", "values": [{"measurement": "T/C", "setting": "[4]", "value": "164 % of control"}, {"measurement": "T/C", "setting": "endpoint: mean survival time, dose: 3.13 mg/kg/injection, schedule: Q01DX005 (ip), vehicle: saline with Tween-80", "value": "152 % of control"}, {"measurement": "T/C", "setting": "endpoint: mean survival time, dose: 6.25 mg/kg/injection, schedule: Q01DX005 (ip), vehicle: saline with Tween-80", "value": "180 % of control"}, {"measurement": "T/C", "setting": "[5]", "value": "176 % of control"}, {"measurement": "T/C", "setting": "endpoint: mean survival time, dose: 12.5 mg/kg/injection, schedule: Q01DX005 (ip), vehicle: other", "value": "165 % of control"}, {"measurement": "T/C", "setting": "endpoint: mean survival time, dose: 12.5 mg/kg/injection, schedule: Q01DX005 (ip), vehicle: saline with Tween-80", "value": "153 % of control"}, {"measurement": "T/C", "setting": "[6]", "value": "185 % of control"}, {"measurement": "T/C", "setting": "endpoint: mean survival time, dose: 25.0 mg/kg/injection, schedule: Q01DX005 (ip), vehicle: other", "value": "172 % of control"}, {"measurement": "T/C", "setting": "[7]", "value": "89 % of control"}]}, {"smiles": "N#Cc1nc(C#N)c(Sc2ccccc2)c(Sc2ccccc2)c1Sc1ccccc1", "values": [{"measurement": "T/C", "setting": "[4]", "value": "103 % of control and 104 % of control"}, {"measurement": "T/C", "setting": "[5]", "value": "94 % of control and 100 % of control"}, {"measurement": "T/C", "setting": "[6]", "value": "94 % of control"}, {"measurement": "T/C", "setting": "[7]", "value": "96 % of control and 102 % of control"}, {"measurement": "T/C", "setting": "[8]", "value": "90 % of control and 102 % of control"}, {"measurement": "T/C", "setting": "[9]", "value": "96 % of control and 103 % of control"}]}, {"smiles": "COc1ccc(C=NCCO)cc1OC", "values": [{"measurement": "T/C", "setting": "endpoint: median survival time, dose: 50.0 mg/kg/injection, schedule: Q04DX002 (ip), vehicle: saline with Tween-80", "value": "111 % of control"}, {"measurement": "T/C", "setting": "endpoint: median survival time, dose: 100.0 mg/kg/injection, schedule: Q04DX002 (ip), vehicle: saline with Tween-80", "value": "100 % of control"}, {"measurement": "T/C", "setting": "endpoint: median survival time, dose: 200.0 mg/kg/injection, schedule: Q04DX002 (ip), vehicle: saline with Tween-80", "value": "100 % of control"}, {"measurement": "T/C", "setting": "endpoint: median survival time, dose: 400.0 mg/kg/injection, schedule: Q04DX002 (ip), vehicle: saline with Tween-80", "value": "100 % of control"}]}, {"smiles": "Oc1ccccc1C=Nc1ccccc1.Oc1ccccc1C=Nc1ccccc1.[Co]", "values": [{"measurement": "T/C", "setting": "endpoint: mean survival time, dose: 100.0 mg/kg/injection, schedule: Q04DX003 (ip), vehicle: other", "value": "92 % of control"}]}, {"smiles": "CC(=O)Nc1ccc(/C=C2\\N=C(c3cccc(Cl)c3)OC2=O)cc1", "values": [{"measurement": "T/C", "setting": "[1]", "value": "90 % of control"}, {"measurement": "T/C", "setting": "[2]", "value": "98 % of control"}, {"measurement": "T/C", "setting": "[3]", "value": "105 % of control"}]}, {"smiles": "COc1nn(O)cc2cc(C(=O)O)nc1-2", "values": [{"measurement": "T/C", "setting": "endpoint: mean survival time, dose: 12.5 mg/kg/injection, schedule: Q04DX002 (ip), vehicle: saline with Tween-80", "value": "104 % of control"}, {"measurement": "T/C", "setting": "endpoint: mean survival time, dose: 25.0 mg/kg/injection, schedule: Q04DX002 (ip), vehicle: saline with Tween-80", "value": "104 % of control"}, {"measurement": "T/C", "setting": "endpoint: mean survival time, dose: 50.0 mg/kg/injection, schedule: Q04DX002 (ip), vehicle: saline with Tween-80", "value": "101 % of control"}]}, {"smiles": "C/C(=N/O)[c-]1[c-][c-][c-][c-]1.[Fe].[c-]1[c-][c-][cH-][c-]1", "values": [{"measurement": "T/C", "setting": "[8]", "value": "97 % of control"}, {"measurement": "T/C", "setting": "endpoint: mean survival time, dose: 100.0 mg/kg/injection, schedule: Q01DX001 (ip), vehicle: saline with Tween-80", "value": "95 % of control"}, {"measurement": "T/C", "setting": "[9]", "value": "94 % of control"}, {"measurement": "T/C", "setting": "endpoint: mean survival time, dose: 200.0 mg/kg/injection, schedule: Q01DX001 (ip), vehicle: saline with Tween-80", "value": "101 % of control"}]}, {"smiles": "CNC(=O)Nc1ccccc1OS(=O)(=O)N(C)C", "values": [{"measurement": "T/C", "setting": "[10]", "value": "97 % of control"}, {"measurement": "T/C", "setting": "[11]", "value": "104 % of control"}, {"measurement": "T/C", "setting": "endpoint: mean survival time, dose: 400.0 mg/kg/injection, schedule: Q04DX003 (ip), vehicle: saline with Tween-80", "value": "104 % of control"}]}, {"smiles": "c1ccc(CCN2CCC(CCc3c[nH]c4ccccc34)CC2)cc1", "values": [{"measurement": "T/C", "setting": "[8]", "value": "107 % of control"}, {"measurement": "T/C", "setting": "endpoint: mean survival time, dose: 50.0 mg/kg/injection, schedule: Q04DX003 (ip), vehicle: saline with Tween-80", "value": "110 % of control"}, {"measurement": "T/C", "setting": "[10]", "value": "104 % of control"}, {"measurement": "T/C", "setting": "[11]", "value": "92 % of control"}]}]}
